From patent US20160045505A1, “COMPOUNDS AND COMPOSITIONS FOR THE TREATMENT OF PARASITIC DISEASES” (NOVARTIS AG, priority 2013, published 2016)
Where two headings read alike, the source gives them in different places.

Tests used:
[1] = test system: Trypanosoma brucei Lister 427 strain, bloodstream form; test: Assay for proliferation of kinetoplastid parasite Trypanosoma brucei (Cell Titer Glo, 48 hours); format: cell-based; conditions: Trypanosoma brucei, T. brucei Lister 427 bloodstream form, read-out: T. brucei EC50
From the text: Assay for Proliferation of Kinetoplastid Parasite Trypanosoma brucei.
The proliferation is quantified by the addition of Cell Titer Glo (Promega®) a luminescent cell viability assay that measures the number of viable cells in culture based on the quantification of cellular ATP amount, which is an indicator of metabolically active cells.
The following assay illustrates the invention without in any way limiting the scope of the invention. This parasite proliferation assay measures the increase in parasite growth using an assay that measures ATP activity, Cell Titer Glo®.
Trypanosoma brucei Lister 427 strain is grown in HMI-9 Trypanosome media for T. brucei bloodstream form. 30 μl of HMI-9 media is dispensed into 384 well assay plates. 200 nl of compounds of the invention (in DMSO), including anti-trypanosome controls (Pentamidine and suramin), are then transferred into the assay plates, as well as DMSO alone to serve as a negative control for inhibition. Then 25 μl of a suspension of T. brucei culture in HMI-9 media is dispensed into the assay plates. The final concentration of parasites in culture corresponds to 1.7% of 0.5 uM ATP activity with Cell Titer Glo® in HMI-9 media. The plates are placed in a 37° C. incubator for 48 hours in an atmospheric environment containing 5% CO2. 40 μl of Cell Titer Glo® is dispensed into the plates. The plates are then read for luminescence. The percentage inhibition of 50%, EC50, is calculated for each compound.

[2] = test system: Trypanosoma cruzi amastigotes (Tulahuen strain expressing Lac-Z) cultured in 3T3 fibroblast cells; test: microbe, parasite or virus in culture; format: cell-based; conditions: Trypanosoma cruzi, TULAHUEN, Fibroblast, T. cruzi amastigotes in 3T3 fibroblast cells, read-out: T cruzi EC50
[3] = test system: Leishmania donovani axenic amastigote parasites; test: Leishmania donovani axenic amastigote proliferation assay (Cell TiterGlo luminescence, 2 day incubation); format: cell-based; conditions: Leishmania donovani, read-out: L. donovani amastigotes EC50
[4] = test system: L. donovani HU3 strain in mouse peritoneal macrophages; test: Assay for proliferation of Leishmania parasites in infected mouse peritoneal macrophages (SybrGreen staining, high-content imaging, 5 days); format: cell-based, Leishmania donovani; conditions: Leishmania donovani, Peritoneal macrophage, L. donovani in mouse peritoneal macrophages, read-out: L. donovani Macrophage EC50
[5] = axenic amastigotes, inhibition of proliferation

EC50 [1]	EC50 ([1]; inhibition of proliferation)	SMILES	EC50 ([2]; inhibition of proliferation)	EC50 [3, 5]	EC50 ([4]; inhibition of proliferation)	EC50 [2]	EC50 ([3]; L. donovani axenic amastigotes)	EC50 [4]
9840 nM		Nc1cnc2nc(-c3ccc(F)c(NC(=O)N4CCCC4)c3)cn2c1 [Compound 568, N-(5-(6-aminoimidazo[1,2-a]pyrimidin-2-yl)-2-fluorophenyl)pyrrolidine-1-carboxamide]						
	4400 nM	Cc1cnc(C(=O)Nc2cccc(-c3cn4cc(NC(=O)OC(C)C)cnc4n3)c2)s1 [Compound 41]						
		CC(C)(C)OC(=O)N1CC=C(c2cnc3nc(-c4cc(NC(=O)N5CCCC5)ccc4Cl)cn3c2)CC1 [Compound 343, tert-butyl 4-(2-(2-chloro-5-(pyrrolidine-1-carboxamido)phenyl)imidazo[1,2-a]pyrimidin-6-yl)-5,6-dihydropyridine-1(2H)-carboxylate]	74 nM	106 nM	308 nM			
		CC(C)OC(=O)Nc1cnc2nc(-c3cc(NC(=O)C(C)OCC(F)(F)F)ccc3Cl)cn2c1 (stereo not shown) [Compound 58]	4530 nM	14200 nM	10500 nM			
		C[Si](C)(C)CCOCn1cnc(-c2cnc3nc(-c4cc(NC(=O)N5CCCC5)ccc4Cl)cn3c2)c1 [Compound 344]	51 nM	73 nM	158 nM			
		Cc1nc(C)c(C(=O)Nc2ccc(F)c(-c3cn4cc(C5=CCOCC5)cnc4n3)c2)o1 [Compound 334]	64 nM	52 nM	85 nM			
		CC1(c2nc(Nc3ccc(F)c(-c4cn5cc(C6CC6)cnc5n4)c3)no2)COC1 [Compound 595, N-(3-(6-cyclopropylimidazo[1,2-a]pyrimidin-2-yl)-4-fluorophenyl)-5-(3-methyloxetan-3-yl)-1,2,4-oxadiazol-3-amine]				9170 nM	> 25000 nM	> 50000 nM
		Cc1nc(C)c(C(=O)Nc2ccc(F)c(-c3cn4cc(-c5cccc(N6CCNCC6)n5)cnc4n3)c2)o1 [Compound 572]				394 nM	1940 nM	2360 nM
		CCn1nccc1-c1cnc2nc(-c3cc(NC(=O)c4oc(C)nc4C)ccc3F)cn2c1 [Compound 387]				149 nM	86 nM	286 nM
		NNC(=O)Nc1cnc2nc(-c3cc(NC(=O)N4CCCC4)ccc3F)cn2c1 [Compound 521, N-(4-fluoro-3-(6-(hydrazinecarboxamido)imidazo[1,2-a]pyrimidin-2-yl)phenyl)pyrrolidine-1-carboxamide]				9230 nM	4680 nM	38200 nM
		CC(C)OC(=O)Nc1cnc2nc(-c3cc(NC(=O)c4ccc(F)o4)ccc3F)cn2c1 [Compound 63]	124 nM	89 nM	222 nM			
		O=C(Nc1ccc(F)c(-c2cn3cc(OCC4CC4)cnc3n2)c1)N1CCCC1 [Compound 562, N-(3-(6-(cyclopropylmethoxy)imidazo[1,2-a]pyrimidin-2-yl)-4-fluorophenyl)pyrrolidine-1-carboxamide]				46 nM	160 nM	245 nM
		CC(C)OC(=O)Nc1cnc2nc(-c3cc(NC(=O)c4cnc(Cl)s4)ccc3Cl)cn2c1 [Compound 51]	1490 nM	3800 nM	9330 nM			
		CC(C)OC(=O)Nc1cnc2nc(-c3cc(NC(=O)N4CC(F)C4)ccc3Cl)cn2c1 [Compound 283]	1320 nM	244 nM	724 nM			
1540 nM		O=CNc1cnc2nc(-c3cc(NC(=O)N4CCCC4)ccc3F)cn2c1 [Compound 533, N-(4-fluoro-3-(6-formamidoimidazo[1,2-a]pyrimidin-2-yl)phenyl)pyrrolidine-1-carboxamide]						
	483 nM	Cc1nc(C)c(C(=O)Nc2ccc(F)c(-c3cn4cc(NC(=O)c5nccn5C)cnc4n3)c2)o1 [Compound 174]						
		C=C(c1ccccc1)c1cnc2nc(-c3cc(NC(=O)c4oc(C)nc4C)ccc3F)cn2c1 [Compound 346]	159 nM	355 nM	490 nM			
		Cc1nc(C)c(C(=O)N(C)c2ccc(F)c(-c3cn4cc(NC(C)C)cnc4n3)c2)o1 [Compound 557]				> 20000 nM	> 25000 nM	> 50000 nM
		COc1cccnc1-c1cnc2nc(-c3cc(NC(=O)c4oc(C)nc4C)ccc3F)cn2c1 [Compound 459]				119 nM	129 nM	347 nM
		CC(C)OC(=O)Nc1ccc(F)c(-c2cn3cc(NC(=O)OC(C)C)cnc3n2)c1 [Compound 302]	134 nM	305 nM	587 nM			
		O=C(Nc1ccc(F)c(-c2cn3cc(-c4ccccc4)cnc3n2)c1)N1CCC1 [Compound 321]	5 nM	8 nM	15 nM			

EC50 [1]	EC50 ([1]; inhibition of proliferation)	SMILES	EC50 ([2]; inhibition of proliferation)	EC50 [3, 5]	EC50 ([4]; inhibition of proliferation)	EC50 [2]	EC50 ([3]; L. donovani axenic amastigotes)	EC50 [4]
		COCCOC(=O)Nc1ccc(F)c(-c2cn3cc(NC(=O)OC(C)C)cnc3n2)c1 [Compound 303]	17700 nM	> 20300 nM	> 50000 nM			
		Cc1nc(C)c(C(=O)Nc2ccc(F)c(-c3cn4cc(NC(C)C)cnc4n3)c2)o1 [Compound 481]				151 nM	209 nM	430 nM
		Cc1nc(C)c(C(=O)Nc2ccc(F)c(-c3cn4cc(N5CCOCC5)cnc4n3)c2)o1 [Compound 490]				157 nM	134 nM	383 nM
		CC(C)OC(=O)Nc1cnc2nc(-c3cc(NC(=O)C4CCCCO4)ccc3Cl)cn2c1 (stereo not shown) [Compound 57]	411 nM	861 nM	2940 nM			
		COC1CC(NC(=O)Nc2ccc(Cl)c(-c3cn4cc(NC(=O)OC(C)C)cnc4n3)c2)C1 (stereo not shown) [Compound 284]	13000 nM	> 25000 nM	17000 nM			
		CNC(=O)Nc1ccc(F)c(-c2cn3cc(NC(=O)OC(C)C)cnc3n2)c1 [Compound 220]	1370 nM	606 nM	4970 nM			
		CC(C)OC(=O)Nc1cnc2nc(-c3cc(NC(=O)N4CCCC4C)ccc3Cl)cn2c1 (stereo not shown) [Compound 272]	1290 nM	1690 nM	3370 nM			
		CC(C)OC(=O)Nc1cnc2nc(-c3cc(NC(=O)N4CCCC4(C)C)ccc3Cl)cn2c1 [Compound 282]	7350 nM	> 25000 nM	10100 nM			
		CC(C)OC(=O)Nc1cnc2nc(-c3cccc(NC(=O)c4ccc(F)o4)c3)cn2c1 [Compound 3, propan-2-yl N-{2-[3-(5-fluorofuran-2-amido)phenyl]imidazo[1,2-a]pyrimidin-6-yl}carbamate]	510 nM	240 nM	430 nM			
		CNc1ccc(-c2cnc3nc(-c4cc(NC(=O)N5CCCC5)ccc4F)cn3c2)cc1 [Compound 351]	95 nM	71 nM	130 nM			
		CC(C)OC(=O)Nc1cnc2nc(-c3cc(NC(=O)c4ccc(F)s4)ccc3F)cn2c1 [Compound 67]	136 nM	677 nM	1130 nM			
		CC(C)OC(=O)Nc1cnc2nc(-c3cc(NC(=O)N4CC(N(C)C(=O)OC(C)(C)C)C4)ccc3F)cn2c1 [Compound 293]	> 16500 nM	> 25000 nM	> 38200 nM			
		CC(C)OC(=O)Nc1cnc2nc(-c3cc(NC(=O)c4ncc[nH]4)ccc3F)cn2c1 [Compound 92]	> 20000 nM	> 25000 nM	> 28900 nM			
		O=C(Nc1ccc(F)c(-c2cn3cc(-c4ccccc4Cl)cnc3n2)c1)N1CCCC1 [Compound 357]	15 nM	88 nM	194 nM			
		O=C(Nc1ccc(F)c(-c2cn3cc(-c4ccccc4)cnc3n2)c1)N1CCCC1 [Compound 358]	12 nM	30 nM	148 nM			
		O=C(Nc1ccc(F)c(-c2cn3cc(-c4ccccn4)cnc3n2)c1)N1CC(F)C1 [Compound 400]				199 nM	45 nM	203 nM
		CC(C)OC(=O)Nc1cnc2nc(-c3cc(NC(=O)c4ccc(C#N)o4)ccc3Cl)cn2c1 [Compound 48]	157 nM	82 nM	139 nM			
		Cc1nc(C)c(C(=O)Nc2ccc(F)c(-c3cn4cc(C5=CCN(C(=O)OC(C)(C)C)CC5)cnc4n3)c2)o1 [Compound 347]	99 nM	154 nM	151 nM			
		CC(C)OC(=O)Nc1cnc2nc(-c3cc(NC(=O)c4cnc(C5CC5)o4)ccc3F)cn2c1 [Compound 108]	1190 nM	771 nM	2410 nM			
		CC(C)(CO)c1nc(Nc2ccc(F)c(-c3cn4cc(C5CC5)cnc4n3)c2)no1 [Compound 596]				3740 nM	> 21200 nM	75 nM
